ChEMBL document CHEMBL1154899, “Synthesis and biological evaluation of caffeic acid 3,4-dihydroxyphenethyl ester” (J Nat Prod, 2010)

Columns and labels:
Type in all cases: functional
SF-539 = assay: Antiproliferative activity against human SF539 cells assessed as cell growth at 5 uM by SRB assay; settings: read-out: Activity
A549 = assay: Antiproliferative activity against human A549 cells by SRB assay
K562 [1] = assay: Antiproliferative activity against human K562 cells assessed as cell growth at 5 uM by SRB assay; settings: read-out: Activity
NCI-H322M = assay: Antiproliferative activity against human NCI-H322M cells assessed as cell growth at 500 uM by SRB assay; settings: read-out: Activity
HOP-92 = assay: Antiproliferative activity against human HOP92 cells assessed as cell growth at 5 uM by SRB assay; settings: read-out: Activity
EKVX [2] = assay: Antiproliferative activity against human EKVX cells by SRB assay
UO-31 [3] = assay: Antiproliferative activity against human UO31 cells assessed as cell growth at 5 mM by SRB assay; settings: read-out: Activity
HCC 2998 = assay: Antiproliferative activity against human HCC2998 cells assessed as cell growth at 500 uM by SRB assay; settings: read-out: Activity
Malme-3M = assay: Antiproliferative activity against human MALME-3M cells assessed as cell growth at 5 uM by SRB assay; settings: read-out: Activity
UO-31 [4] = assay: Antiproliferative activity against human UO31 cells assessed as cell growth at 500 uM by SRB assay; settings: read-out: Activity
HT-29 = assay: Antiproliferative activity against human HT-29 cells assessed as cell growth at 500 uM by SRB assay; settings: read-out: Activity
MDA-MB-231 = assay: Antiproliferative activity against human MDA-MB-231 cells assessed as cell growth at 5 uM by SRB assay; settings: read-out: Activity
SR = assay: Antiproliferative activity against human SR cells assessed as cell growth at 0.5 uM by SRB assay; settings: read-out: Activity
UACC-257 [5] = assay: Antiproliferative activity against human UACC257 cells assessed as cell growth at 50 uM by SRB assay; settings: read-out: Activity
NCI-H226 = assay: Antiproliferative activity against human NCI-H226 cells assessed as cell growth at 5 uM by SRB assay; settings: read-out: Activity
DU-145 = assay: Antiproliferative activity against human DU145 cells assessed as cell growth at […] by SRB assay; settings: read-out: Activity
HCT-116 [6] = assay: Antiproliferative activity against human HCT116 cells assessed as cell growth at 500 uM by SRB assay; settings: read-out: Activity
K562 [7] = assay: Antiproliferative activity against human K562 cells assessed as cell growth at 500 uM by SRB assay; settings: read-out: Activity
HOP-62 [8] = assay: Antiproliferative activity against human HOP62 cells assessed as cell growth at 0.5 uM by SRB assay; settings: read-out: Activity
A498 = assay: Antiproliferative activity against human A498 cells assessed as cell growth at 0.5 uM by SRB assay; settings: read-out: Activity
MCF7 = assay: Antiproliferative activity against human MCF7 cells assessed as cell growth at 50 uM by SRB assay; settings: read-out: Activity
NCI/ADR-RES [9] = assay: Antiproliferative activity against human NCI/ADR-RES cells assessed as cell growth at 5 uM by SRB assay; settings: read-out: Activity
OVCAR-5 = assay: Antiproliferative activity against human OVCAR5 cells at 5 uM by SRB assay
LOX IMVI [10] = assay: Antiproliferative activity against human LOXIMVI cells assessed as cell growth at 0.5 uM by SRB assay; settings: read-out: Activity
T47D [11] = assay: Antiproliferative activity against human T47D cells assessed as cell growth at 500 uM by SRB assay; settings: read-out: Activity
CCRF-CEM = assay: Antiproliferative activity against human CCRF-CEM cells by SRB assay
LOX IMVI [12] = assay: Antiproliferative activity against human LOXIMVI cells assessed as cell growth at 50 uM by SRB assay; settings: read-out: Activity
NCI-H23 = assay: Antiproliferative activity against human NCI-H23 cells assessed as cell growth at 0.5 uM by SRB assay; settings: read-out: Activity
OVCAR-4 = assay: Antiproliferative activity against human OVCAR4 cells assessed as cell growth at 0.5 uM by SRB assay; settings: read-out: Activity
786-0 = assay: Antiproliferative activity against human 786-0 cells assessed as cell growth at 50 uM by SRB assay; settings: read-out: Activity
SNB-75 [13] = assay: Antiproliferative activity against human SNB75 cells assessed as cell growth at 5 mM by SRB assay; settings: read-out: Activity
T47D [14] = assay: Antiproliferative activity against human T47D cells assessed as cell growth at 50 uM by SRB assay; settings: read-out: Activity
HOP-62 [15] = assay: Antiproliferative activity against human HOP62 cells assessed as cell growth at 5 uM by SRB assay; settings: read-out: Activity
SK-MEL-2 [16] = assay: Antiproliferative activity against human SK-MEL-2 cells assessed as cell growth at 5 uM by SRB assay; settings: read-out: Activity
CAKI-1 = assay: Antiproliferative activity against human Caki1 cells assessed as cell growth at 500 uM by SRB assay; settings: read-out: Activity
SF-268 = assay: Antiproliferative activity against human SF268 cells by SRB assay
SF-295 = assay: Antiproliferative activity against human SF295 cells assessed as cell growth at 500 uM by SRB assay; settings: read-out: Activity
EKVX [17] = assay: Antiproliferative activity against human EKVX cells assessed as cell growth at 500 uM by SRB assay; settings: read-out: Activity
UACC-257 [18] = assay: Antiproliferative activity against human UACC257 cells assessed as cell growth at 5 mM by SRB assay; settings: read-out: Activity
NCI/ADR-RES [19] = assay: Antiproliferative activity against human NCI/ADR-RES cells assessed as cell growth at 500 uM by SRB assay; settings: read-out: Activity
IGROV-1 = assay: Antiproliferative activity against human IGROV1 cells assessed as cell growth at 500 uM by SRB assay; settings: read-out: Activity
U-251 = assay: Antiproliferative activity against human U251 cells assessed as cell growth at 0.5 uM by SRB assay; settings: read-out: Activity
SNB-75 [20] = assay: Antiproliferative activity against human SNB75 cells assessed as cell growth at 0.5 uM by SRB assay; settings: read-out: Activity
SK-MEL-2 [21] = assay: Antiproliferative activity against human SK-MEL-2 cells assessed as cell growth at 500 uM by SRB assay; settings: read-out: Activity
HCT-116 [22] = assay: Antiproliferative activity against human HCT116 cells assessed as cell growth at 5 uM by SRB assay; settings: read-out: Activity
UACC-62 = assay: Antiproliferative activity against human UACC62 cells assessed as cell growth at 5 uM by SRB assay; settings: read-out: Activity
[23] = read-out: LC50 (the source's name)
[24] = read-out: pLC50 (the source's name) (converted)

In the case of `O=C(/C=C/c1ccc(O)c(O)c1)OCCc1ccc(O)c(O)c1`, the growth at 5 µM (SF-539) is reported as 81%, the GI50 (A549; read-out: GI50) is reported as 17.7 µM and the CC50 (A549; [23]) is reported as greater than 50 µM. It also gave a TGI (A549; read-out: TGI) greater than 50 µM, a GI50 (A549; read-out: pGI50 (converted)) of 17.8 µM and a CC50 (A549; [24]) greater than 50.1 µM. For the same molecule, the TGI (A549; read-out: pTGI) was greater than 50.1 µM, the growth at 5 µM (K562 [1]) was 95% and the growth at 500 µM (NCI-H322M) was 86%. For the same molecule, the growth at 5 µM (HOP-92) was 60%, the GI50 (EKVX [2]; read-out: GI50) was 14.9 µM and the CC50 (EKVX [2]; [23]) was greater than 50 µM. The TGI (EKVX [2]; read-out: TGI) was greater than 50 µM, the GI50 (EKVX [2]; read-out: pGI50 (converted)) was 14.8 µM and the CC50 (EKVX [2]; [24]) was greater than 50.1 µM. For the same molecule, the TGI (EKVX [2]; read-out: pTGI) was greater than 50.1 µM, the growth at 5000 µM (UO-31 [3]) was -14% and the growth at 500 µM (HCC 2998) was 80%. The growth at 5 µM (Malme-3M) was 98%, the growth at 500 µM (UO-31 [4]) was 23% and the growth at 500 µM (HT-29) was 99%. For the same molecule, the growth at 5 µM (MDA-MB-231) was 108%, the growth at 0.5 µM (SR) was 92% and the growth at 50 µM (UACC-257 [5]) was 92%. The growth at 5 µM (NCI-H226) was 99%, the growth (DU-145) was -22% and the growth at 500 µM (HCT-116 [6]) was 65%. For the same molecule, the growth at 500 µM (K562 [7]) was 9%, the growth at 0.5 µM (HOP-62 [8]) was 92% and the growth at 0.5 µM (A498) was 94%. It also gave a growth at 50 µM (MCF7) of 92%, a growth at 5 µM (NCI/ADR-RES [9]) of 98% and an Activity (OVCAR-5) of 89%. The growth at 0.5 µM (LOX IMVI [10]) was 92%, the growth at 500 µM (T47D [11]) was 71% and the GI50 (CCRF-CEM) was 0.75 µM. For the same molecule, the CC50 (CCRF-CEM; [23]) was greater than 50 µM, the TGI (CCRF-CEM; read-out: TGI) was 5.33 µM and the CC50 (CCRF-CEM; [24]) was greater than 50.1 µM. It also gave a TGI (CCRF-CEM; read-out: pTGI (converted)) of 5.37 µM, a growth at 50 µM (LOX IMVI [12]) of 98% and a growth at 0.5 µM (NCI-H23) of 90%. It also gave a growth at 0.5 µM (OVCAR-4) of 99%, a growth at 50 µM (786-0) of 94% and a growth at 5000 µM (SNB-75 [13]) of 30%. It also gave a growth at 50 µM (T47D [14]) of 93%, a growth at 5 µM (HOP-62 [15]) of 89% and a growth at 5 µM (SK-MEL-2 [16]) of 95%. It also gave a growth at 500 µM (CAKI-1) of 68%, a GI50 (SF-268; read-out: GI50) of 6.93 µM and a CC50 (SF-268; [23]) greater than 50 µM. It also gave a TGI (SF-268; read-out: TGI) greater than 50 µM, a GI50 (SF-268; read-out: pGI50 (converted)) of 6.61 µM and a CC50 (SF-268; [24]) greater than 50.1 µM. The TGI (SF-268; read-out: pTGI) was greater than 50.1 µM, the growth at 500 µM (SF-295) was 92% and the growth at 500 µM (EKVX [17]) was 78%. For the same molecule, the growth at 5000 µM (UACC-257 [18]) was 18%, the growth at 500 µM (NCI/ADR-RES [19]) was 78% and the growth at 500 µM (IGROV-1) was 35%. It also gave a growth at 0.5 µM (U-251) of 102%, a growth at 0.5 µM (SNB-75 [20]) of 81% and a growth at 500 µM (SK-MEL-2 [21]) of 38%. The growth at 5 µM (HCT-116 [22]) was 97% and the growth at 5 µM (UACC-62) was 94%.
